These results are taken from US20170273985A1, “TRICYCLIC DERIVATIVE” (Sunovion Pharmaceuticals Inc., priority 2014, published 2017).

Each structure is given as a SMILES string.

The target in one assay is PDE1B (Homo sapiens, UniProt Q01064). As to the kind of experiment: In vitro HTRF PDE1 inhibition assay (PDE1B). The class given is biochemical. As to conditions: Table 22. The text has this:
An exemplary procedure for the in vitro Homogenous Time Resolved Fluorescence assay, which can be used to determine the inhibitory action of compounds of the invention toward PDE1 or its isoforms, follows. The HTRF PDE1 assay utilized the HTRF (Homogenous Time Resolved Fluorescence) technology, which is based on the competition between unlabeled cyclic nucleotide and cyclic nucleotide labeled with XL665 for the binding to cyclic nucleotide-specific antibody labeled with cryptate. The HTRF signal is thus inversely proportional to the concentration of cyclic nucleotide being measured. Since phosphodiesterases break down cyclic nucleotides the HTRF signal was used to determine PDE activity. The Cisbio cGMP HTRF assay kit (Cat no: 62GM2PEC) was utilized. Cyclic GMP was diluted to 200 nM in HTRF assay buffer (1 mM CaCl2, 10 mM MgCl2, 10 mM Tris-HCl, 0.1% BSA, pH 7.4). 10 μl of compound or DMSO was diluted in 200 nM cyclic GMP solution and added to wells of a 96 well white plate to give 100 nM cyclic GMP in 1% DMSO final concentration. PDE (1A3, 1B or IC) was diluted to 2× working concentration in HTRF assay buffer with 2 μg/ml calmodulin, and 10 μl was added to initiate the reaction. The plate was then incubated for 45 minutes at 37° C. d2-Labelled cyclic GMP and anti-cGMP cryptate were diluted in 50 mM phosphate buffer, 0.8 M KF, 1% Triton X100, 0.2% BSA, pH 7.0. Following incubation 10 μl d2-cGMP, then 10 μl anti cGMP cryptate were added to each well and the plate was incubated for 45 minutes at room temperature. The plate was then read on Perkin Elmer Victor at 2 different FRET readings ex/emm 340 nm/665 nm and 340 nm/615 nm. Compounds having an IC50 of <1 μM, are denoted as +++. Compounds having an IC50 of 1−10 μM, are denoted as ++. Compounds having an IC50 of 10-100 μM, are denoted as +.
Take `CC(C)c1ncc2c(=O)n3c(nn12)N(CCCC(O)CO)CCC3` (stereo not shown) [Example 111, 1-(4,5-Dihydroxypentyl)-9-isopropyl-1,2,3,4-tetrahydro-6H-imidazo[51-f]pyrimido[2,1-c][1,2,4]triazin-6-one]: the IC50 was under 1000 nM.

`CC(C)c1ncc2c(=O)n3c(nn12)N(CC1CCN(C)CC1)CCC3` [Example 112, 9-Isopropyl-1-[(1-methyl-4-piperidinyl)methyl]-1,2,3,4-tetrahydro-6H-imidazo[5,1-f]pyrimido[2,1-c][1,2,4]triazin-6-one] showed an IC50 of 1000 to 10000 nM.

With `CC(C)c1ncc2c(=O)n3c(nn12)N(CCC1CCNCC1)CCC3` [Example 113, 9-Isopropyl-1-[2-(4-piperidinyl)ethyl]-1,2,3,4-tetrahydro-6H-imidazo[5,1-f]pyrimido[2,1-c][1,2,4]triazin-6-one], the IC50 was 1000 to 10000 nM.

`CC(C)c1ncc2c(=O)n3c(nn12)N(CCC1CCN(C)CC1)CCC3` [Example 114, 9-Isopropyl-1-[2-(1-methyl-4-piperidinyl)ethyl]-1,2,3,4-tetrahydro-6H-imidazo[5,1-f]pyrimido[2,1-c][1,2,4]triazin-6-one] showed an IC50 of under 1000 nM.

`CC(C)c1ncc2c(=O)n3c(nn12)N(CCc1cccc(C#N)c1)CCC3` [Example 115, 3-(2-(9-Isopropyl-6-oxo-2,3,4,6-tetrahydro-1H-imidazo[1,5-f]pyrimido[2,1-c][1,2,4]triazin-1-yl)ethyl)benzonitrile] showed an IC50 of under 1000 nM.

As for `N#Cc1ccc(CCN2CCCn3c2nn2c(C4CCOCC4)ncc2c3=O)cc1` [Example 116, 4-{2-[6-Oxo-9-(tetrahydro-2H-pyran-4-yl)-3,4-dihydro-6H-imidazo[5,1-f]pyrimido[2,1-c][1,2,4]triazin-1(2H)-yl]ethyl}benzonitrile], the half-maximal inhibitory concentration (IC50) was under 1000 nM.

`N#Cc1cccc(CCN2CCCn3c2nn2c(C4CCOCC4)ncc2c3=O)c1` [Example 117] showed an IC50 of 10000 to 100000 nM.

The compound `N#Cc1cccc(CCCN2CCCn3c2nn2c(C4CCOCC4)ncc2c3=O)c1` [Example 118] came in with an IC50 of under 1000 nM.

`N#Cc1ccc(CCCN2CCCn3c2nn2c(C4CCOCC4)ncc2c3=O)cc1` [Example 119] gave an IC50 of under 1000 nM.

Regarding `CC1CN(CCCc2ccccn2)c2nn3c(C(C)C)ncc3c(=O)n2C1` (stereo not shown) [Example 121], the IC50 is under 1000 nM.

`CC(C)c1ncc2c(=O)n3c(nn12)N(CCCc1cccc(F)c1)CCC3` [Example 122] gave an IC50 of under 1000 nM.

For the compound `CC(C)c1ncc2c(=O)n3c(nn12)N(C(=O)CC1CCOCC1)CCC3` [Example 123, 9-Isopropyl-1-(tetrahydro-2H-pyran-4-ylacetyl)-1,2,3,4-tetrahydro-6H-imidazo[5,1-f]pyrimido[2,1-c][1,2,4]triazin-6-one], the concentration for half-maximal inhibition (IC50) lay within 1000 to 10000 nM.

Take `CC(C)c1ncc2c(=O)n3c(nn12)N(C(=O)CCC1CCOCC1)CCC3` [Example 124, 9-Isopropyl-1-(3-(tetrahydro-2H-pyran-4-yl)propanoyl)-3,4-dihydro-1H-imidazo[1,5-f]pyrimido[2,1-c][1,2,4]triazin-6(2H)-one]: the IC50 fell in the range of 10000 to 100000 nM.

With `CC(C)c1ncc2c(=O)n3c(nn12)N(C(=O)CCN1CCOCC1)CCC3` [Example 125, 9-Isopropyl-1-(3-morpholinopropanoyl)-3,4-dihydro-1H-imidazo[1,5-f]pyrimido[2,1-c][1,2,4]triazin-6(2H)-one], the IC50 lay within 1000 to 10000 nM.

As for `CC(C)c1ncc2c(=O)n3c(nn12)OC(c1ccccc1)CC3` (stereo not shown) [Example 126, 9-Isopropyl-2-phenyl-3,4-dihydroimidazo[5,1-f][1,3]oxazino[2,3-c][1,2,4]triazin-6(2H)-one], the IC50 was under 1000 nM.

With `CC(C)c1ncc2c(=O)n3c(nn12)OC(c1ccc(Cl)cc1)CC3` (stereo not shown) [Example 127], the IC50 is under 1000 nM.

Regarding `COc1cccc(C2CCn3c(nn4c(C(C)C)ncc4c3=O)O2)c1` (stereo not shown) [Example 128], the IC50 lay within 1000 to 10000 nM.

`COc1ccc(C2CCn3c(nn4c(C(C)C)ncc4c3=O)O2)cc1` (stereo not shown) [Example 129] displayed an IC50 of under 1000 nM.

In turn, `CC(C)c1ncc2c(=O)n3c(nn12)OC(Cc1ccccc1)CC3` (stereo not shown) [Example 130] returned an IC50 of under 1000 nM.

As to `COc1ccc(CC2CCn3c(nn4c(C(C)C)ncc4c3=O)O2)cc1` (stereo not shown) [Example 131], the IC50 was under 1000 nM.

In turn, `CC(C)c1ncc2c(=O)n3c(nn12)OC(Cc1ccc(Cl)cc1)CC3` (stereo not shown) [Example 132] gave an IC50 of under 1000 nM.

Consider `O=c1c2cnc(C3CCCC3)n2nc2n1CCC(c1ccccc1)C2` (stereo not shown) [Example 134, 3-Cyclopentyl-7-phenyl-8,9-dihydro-6H-imidazo[5,1-f]pyrido[2,1-c][1,2,4]triazin-11(7H)-one], for which the IC50 lay within 1000 to 10000 nM.

Turning to `COc1cccc(C2CCn3c(nn4c(C5CCCC5)ncc4c3=O)C2)c1` (stereo not shown) [Example 135], the concentration for half-maximal inhibition (IC50) was in the range of 1000 to 10000 nM.

Take `COc1ccc(C2CCn3c(nn4c(C5CCCC5)ncc4c3=O)C2)cc1` (stereo not shown) [Example 136]: the IC50 fell in the range of 1000 to 10000 nM.

The compound `O=c1c2cnc(C3CCOCC3)n2nc2n1CC(c1ccc(Cl)cc1)C2` (stereo not shown) [Example 138, 7-(4-Chlorophenyl)-3-(tetrahydro-2H-pyran-4-yl)-7,8-dihydro-6H,10H-imidazo[5,1-f]pyrrolo[2,1-c][1,2,4]triazin-10-one] gave an IC50 of 1000 to 10000 nM.

Still in this assay, the particulars now being: Table 25.
In the case of `COCCN1CCn2c1nn1c(C(C)C)ncc1c2=O` [Example 139], the IC50 is under 1000 nM.

Compound `CC(C)c1ncc2c(=O)n3c(nn12)N(CCc1cccnc1)CC3` [Example 140] came in with an IC50 of under 1000 nM.

With `CC(C)c1ncc2c(=O)n3c(nn12)N(Cc1ccc(Cl)cn1)CC3` [Example 141], the IC50 was under 1000 nM.

`O=c1c2cnc(C3CCC3)n2nc2n1CCN2CCCc1ccccn1` [Example 142] gave an IC50 of under 1000 nM.

Consider `O=c1c2cnc(C3CCC3)n2nc2n1CCN2CC1CCOCC1` [Example 143], for which the IC50 is under 1000 nM.

On to `O=c1c2cnc(C3CCC3)n2nc2n1CCN2Cc1ccc(Cl)cn1` [Example 144], for which the IC50 was under 1000 nM.

Turning to `COC(C)c1ncc2c(=O)n3c(nn12)N(CCC(C)(C)C)CC3` (stereo not shown) [Example 145], the IC50 was under 1000 nM.

The compound `O=c1c2cnc(C3CCOCC3)n2nc2n1CCN2CCOC(F)(F)F` [Example 146] gave an IC50 of under 1000 nM.

Turning to `O=c1c2cnc(C3CCOCC3)n2nc2n1CCN2CCc1cccc(F)c1` [Example 147], the IC50 is under 1000 nM.

For the compound `O=c1c2cnc(C3CCOCC3)n2nc2n1CCN2CCC1CC1` [Example 149], the IC50 is under 1000 nM.

In turn, `COc1ccccc1CN1CCn2c1nn1c(C3CCOCC3)ncc1c2=O` [Example 150] returned an IC50 of under 1000 nM.

In turn, `O=c1c2cnc(C3CCOCC3)n2nc2n1CCN2CC1CCC1` [Example 151] registered an IC50 of under 1000 nM.

Regarding `O=c1c2cnc(C3CCOCC3)n2nc2n1CCN2CC1CCCC1` [Example 152], the IC50 is under 1000 nM.

On to `COc1ccc(CN2CCn3c2nn2c(C4CCOCC4)ncc2c3=O)cc1` [Example 157], for which the IC50 was under 1000 nM.

The compound `COc1cccc(CN2CCn3c2nn2c(C4CCOCC4)ncc2c3=O)c1` [Example 158] gave an IC50 of under 1000 nM.

On to `O=c1c2cnc(C3CCOCC3)n2nc2n1CCN2Cc1ccc(-c2ccccn2)cc1` [Example 161], for which the IC50 was under 1000 nM.

Consider `CC(C)CN1CCn2c1nn1c(C3CCOCC3)ncc1c2=O` [Example 174], for which the IC50 is under 1000 nM.

With `CC(C)(C)CN1CCn2c1nn1c(C3CCOCC3)ncc1c2=O` [Example 175], the concentration for half-maximal inhibition (IC50) was under 1000 nM.

`CC(C)c1ncc2c(=O)n3c(nn12)N(Cc1ccc(Cl)cn1)CCC3` [Example 177] returned an IC50 of under 1000 nM.

As to `O=c1c2cnc(C3CCC3)n2nc2n1CCCN2CC1CCOCC1` [Example 178], the 50% inhibitory concentration (IC50) was under 1000 nM.

`O=c1c2cnc(C3CCC3)n2nc2n1CCCN2Cc1ccc(Cl)cn1` [Example 179] displayed an IC50 of under 1000 nM.

Turning to `COC(C)c1ncc2c(=O)n3c(nn12)N(CCC(C)(C)C)CCC3` (stereo not shown) [Example 180], the IC50 was under 1000 nM.

Turning to `COC(C)c1ncc2c(=O)n3c(nn12)N(CCCC(F)(F)F)CCC3` (stereo not shown) [Example 181], the IC50 was 1000 to 10000 nM.

Turning to `O=c1c2cnc(C3CCOCC3)n2nc2n1CCCN2CCCC(F)(F)F` [Example 182], the IC50 was under 1000 nM.

`CC(C)CN1CCCn2c1nn1c(C3CCOCC3)ncc1c2=O` [Example 183] gave an IC50 of under 1000 nM.

For the compound `CC(C)(C)CN1CCCn2c1nn1c(C3CCOCC3)ncc1c2=O` [Example 184], the IC50 is under 1000 nM.

Compound `CC(C)CCN1CCCn2c1nn1c(C3CCOCC3)ncc1c2=O` [Example 185] came in with an IC50 of under 1000 nM.

As for `CC(C)(C)CCN1CCCn2c1nn1c(C3CCOCC3)ncc1c2=O` [Example 186], the IC50 is under 1000 nM.

The compound `O=c1c2cnc(C3CCOCC3)n2nc2n1CCCN2C[C@H]1CC[C@H](C(F)(F)F)CC1` [Example 192] gave an IC50 of under 1000 nM.

With `CO[C@H]1CC[C@@H](CN2CCCn3c2nn2c(C4CCOCC4)ncc2c3=O)CC1` [Example 194], the IC50 is under 1000 nM.
